The text below walks through data of US5691351A, “Bis-(Heteroarylmethoxyphenyl)cycloalkyl carboxylates as inhibitors of leukotriene biosynthesis” (Abbott Laboratories, priority 1996, dated 1997).

A word on the IC50: it is the concentration that inhibits the measured activity by half.

Where a name gives a salt, the structure may show the parent alone. Read-outs that look alike come from different tables or passages of the source.

Test [1] relates to Calcium Ionophore Stimulated Leukotriene Formation in Human Polymorphonuclear Leukocytes. As to the kind of experiment: Calcium ionophore-induced LTB4 formation in human polymorphonuclear leukocytes (Lipoxygenase Inhibition Determination). The settings on record: human PMNL, 15 min preincubation, calcium ionophore 8.3 μM, 10 min at 37° C., LTB4 by enzyme-linked immunoassay or HPLC, read-out: Inhibitory Potencies Against Calcium Ionophore Stimulated Leukotriene Formation in Human Polymorphonuclear Leukocytes, IC50. The test is classed as cell-based. The procedure: Leukotriene biosynthesis inhibitory activity of representative compounds of the present invention was evaluated in an assay involving calcium ionophore-induced LTB4 expressed in human polymorphornuclear leukocytes (PMNL). Human PMNL isolated from heparinized (20 USP units/mL) venous blood (25 mL) obtained from healthy volunteers was layered over an equal volume of Ficoll-Hypaque Mono-Poly Resolving Medium (ICN Flow, Costa Mesa, Calif.) and centrifugated at 400×g for 40 min at 20° C. The PMNL was collected, erythrocytes lysed and washed 2× and suspended at 1.0×10^7 cells/mL in Earle's balanced salt solution with 17 mM Earle's HEPES. […] Incubations were stopped with the addition of two volumes of ice-cold methanol followed by centrifuging the cell suspensions at 4° C. for 10 min at 450×g. The mount of LTB4 in the methanol extract was analyzed by enzyme-linked immunoassay or by HPLC analysis.

The next test relates to leukotriene synthesis. The settings on record: Bioorganic and Medicinal Chemistry Letters, 1: 645-648 (1991); cited from earlier work.

Take `O=C(O)C1CCC(c2ccc(OCc3ccc4ccccc4n3)cc2)(c2ccc(OCc3ccc4ccccc4n3)cc2)CC1` [Example 1, 4,4-bis-(4(2-quinolylmethoxy)phenyl)cyclohexane carboxylic acid]: the IC50 in test [1] worked out at 59 nM.

Turning to `O=C(O)C1CCC(c2ccc(OCc3ccc4ccccc4n3)cc2)(c2ccc(OCc3ccc4ccccc4n3)cc2)CC1` [Example 2, 4,4-bis-(4-(2-quinolylmethoxy)phenyl)cyclohexane carboxylic acid sodium salt], in test [1] (sodium salt), the IC50 came out at 47 nM. Consider `CC(=NOC1CCC(c2ccc(OCc3ccc4ccccc4n3)cc2)(c2ccc(OCc3ccc4ccccc4n3)cc2)CC1)C(=O)O` [Example 5, sodium salt], for which the IC50 in test [1] was found to be 37 nM.

Take `O=C(O)CSC(CCCc1ccc(Cl)cc1)c1ccc(OCc2ccc3ccccc3n2)cc1` [L-674,636, {[4-(4-chlorophenyl)-1-[4-(2-quinolylmethoxy)phenyl]-butyl]thio}acetic acid]: in the test on leukotriene synthesis, the “leukotriene synthesis inhibitor (in words)” value was “potent and orally active leukotriene synthesis inhibitor”.
